≈ marks a conversion by molar mass, not a printed value. Read-outs that look alike come from different tables or passages of the source. Marks after values point to notes of the source that are not given here.
Experiments:
NDM-1 [1] = target: T1, NDM-1 (Klebsiella pneumoniae, UniProt C7C422); experiment: biochemical; type: biochemical; conditions: for inhibition of nitrocefin turnover: at the concentrations tested, up to 320 μM
Target sequence in this assay (C7C422 29-270, looked up): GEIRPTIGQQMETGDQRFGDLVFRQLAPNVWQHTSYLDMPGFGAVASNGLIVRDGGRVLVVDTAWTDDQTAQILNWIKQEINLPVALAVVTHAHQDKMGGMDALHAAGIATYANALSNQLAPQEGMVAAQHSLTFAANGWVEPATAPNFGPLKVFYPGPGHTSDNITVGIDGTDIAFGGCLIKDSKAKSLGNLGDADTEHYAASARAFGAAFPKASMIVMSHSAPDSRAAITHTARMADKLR

susceptible strains = conditions: no reference given; cited from earlier work
[2] = system: E. coli UTI89 expressing NDM-1; experiment: microbe, parasite or virus in culture; type: cell-based; conditions: for MIC: Escherichia coli; for UTI89 MIC: compound alone, Mueller-Hinton broth
[3] = system: E. coli MG1655 expressing NDM-1; experiment: microbe, parasite or virus in culture; type: cell-based; conditions: for MIC: Escherichia coli; for MG1655 MIC: compound alone, 20 h, Mueller-Hinton broth
[4] = system: E. coli MG1655 expressing CTX-M-1; type: cell-based
CoCo-NDM-1 = CoCo-NDM-1 (Klebsiella pneumoniae, UniProt C7C422); type: binding; conditions: 300 μM CoCo-NDM-1, one or two equivalents of compound
[5] = system: E. coli MG1655 expressing NDM-1; type: cell-based
NDM-1 [6] = target: T1, NDM-1; type: biochemical; conditions: 0–60 μM inhibitor; for change of Vmax with increasing inhibitor concentration: 10 nM NDM-1, Figure S5; for inhibition mode: 10 nM NDM-1, nitrocefin 63–500 μM
Target sequence in this assay (C7C422 29-270, looked up): as above

NDM-1 [7] = target: T1, NDM-1; type: binding; conditions: 10 μM NDM-1, after dialysis
Target sequence in this assay (C7C422 29-270, looked up): as above

NDM-1 [8] = target: T1, NDM-1; type: cell-based, E. coli; conditions: for reduction of nitrocefin turnover: 100 μM, treated for 60 minutes at room temperature
Target sequence in this assay (C7C422 37-270 limits assumed): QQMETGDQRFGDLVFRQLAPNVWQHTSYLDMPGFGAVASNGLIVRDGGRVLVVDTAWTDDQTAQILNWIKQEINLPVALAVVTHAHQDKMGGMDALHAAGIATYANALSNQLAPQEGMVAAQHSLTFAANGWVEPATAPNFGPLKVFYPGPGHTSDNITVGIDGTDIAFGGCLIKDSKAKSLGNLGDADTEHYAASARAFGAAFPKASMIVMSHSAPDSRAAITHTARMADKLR

NDM-1 [9] = target: T1, NDM-1; experiment: Turnover of PcephPT by purified NDM-1; type: biochemical; conditions: 5 nM NDM-1, concentrations up to 160 μM, HEPES pH 7.2, 37 °C
Target sequence in this assay (C7C422 29-270, looked up): as the sequence (C7C422 29-270, looked up) above

[10] = MG1655, 20 h, read-out: MG1655 MIC
[11] = OD600 every 30 minutes over 20 h

Sequence of CoCo-NDM-1 (C7C422 29-270, looked up): as above

SMILES: CO/N=C(\C(=O)N[C@@H]1C(=O)N2C(C(=O)O)=C(CSc3nc(=O)c(=O)[nH]n3C)CS[C@H]12)c1csc(N)n1 [Ceftriaxone]
- IC50 (NDM-1 [1]): 16 µM

SMILES: CC1=C(C(=O)O)N2C(=O)[C@@H](NC(=O)[C@H](N)c3ccccc3)[C@H]2SC1 [Cephalexin]
- IC50 (NDM-1 [1]): 36 µM

SMILES: CC(=O)OCC1=C(C(=O)O)N2C(=O)[C@@H](NC(=O)Cc3cccs3)[C@H]2SC1 [Cephalothin]
- IC50 (NDM-1 [1]): 9.1 µM

SMILES: O=C(O)c1cccc(C(=O)O)n1 [DPA, dipicolinic acid]
- IC50 (NDM-1 [1]): 1.8 µM

SMILES: C[C@@H](O)[C@H]1C(=O)N2C(C(=O)O)=C(SCCN=CN)C[C@H]12 [Imipenem]
- IC50 (NDM-1 [1]): > 100 µM
- inhibition of nitrocefin turnover (NDM-1 [1]): did not inhibit nitrocefin turnover

SMILES: C[C@@H](O)[C@H]1C(=O)N2C(C(=O)O)=C(S[C@@H]3CN[C@H](C(=O)N(C)C)C3)[C@H](C)[C@H]12 [Meropenem]
- MIC (susceptible strains): lower than 10 μM
- MIC ([2]; 20 h, read-out: UTI89 MIC): > 160 µM
- MIC ([2]; read-out: UTI89 MIC of meropenem): 10 µM
- UTI89 MIC ([2]; 20 h): >160 µM
- UTI89 MIC of meropenem ([2]; with fixed 10 μM PT): not restored
- UTI89 MIC of meropenem ([2]; with fixed 10 μM PcephPT): not restored
- IC50 (NDM-1 [1]): > 100 µM
- inhibition of nitrocefin turnover (NDM-1 [1]): did not inhibit nitrocefin turnover
- MIC [3, 10]: > 160 µM
- MIC ([3]; MG1655, read-out: MG1655 MIC of meropenem): 10 µM
- MG1655 MIC [3]: >160 µM
- MG1655 MIC of meropenem ([3]; with fixed 10 μM PT): not restored
- MG1655 MIC of meropenem ([3]; with fixed 10 μM PcephPT): not restored

SMILES: [O-][n+]1ccccc1S [PT, pyrithione]
- concentration that fully inhibits growth [4, 11]: ≥ 20 µM
- growth pattern ([4]; at 10 μM): delayed growth
- MIC ([2]; 20 h, read-out: UTI89 MIC): 40 µM (≈ 5.09 µg/mL)
- change of CoCo-NDM-1 UV-Vis spectrum (CoCo-NDM-1): increase in absorbance in the 500–650 nm region
- concentration that fully inhibits growth [5, 11]: ≥ 20 µM
- growth pattern ([5]; at 10 μM): delayed growth
- change of Vmax with increasing inhibitor concentration (NDM-1 [6]): clear decrease in Vmax
- inhibition mode (NDM-1 [6]): not competitive
- IC50 (NDM-1 [1]): 17 µM
- MIC [3, 10]: 20 µM (≈ 2.54 µg/mL)
- zinc removed from NDM-1 (NDM-1 [7]; 40 μM (four equivalents)): did not lead to loss of zinc
- zinc removed from NDM-1 (NDM-1 [7]; 160 μM (sixteen equivalents)): did not lead to loss of zinc
- reduction of nitrocefin turnover (NDM-1 [8]): more than 75%

SMILES: O=C(Cc1ccccc1)N[C@@H]1C(=O)N2C(C(=O)O)=C(CSc3cccc[n+]3[O-])CS[C@H]12 [PcephPT, 2-((((6R,7R)-2-carboxy-8-oxo-7-(2-phenylacetamido)-5-thia-1-azabicyclo[4.2.0]oct-2-en-3-yl)methyl)thio)pyridine 1-oxide]
- growth pattern ([4]; varying concentrations, compared with PT): identical to that caused by PT
- MIC ([2]; 20 h, read-out: UTI89 MIC): > 160 µM
- UTI89 MIC ([2]; 20 h): >160 ^* μM
- change of CoCo-NDM-1 UV-Vis spectrum (CoCo-NDM-1): increase in absorbance in the 500–650 nm region
- turnover of compound by NDM-1 (NDM-1 [9]): turned over by 5 nM NDM-1 efficiently
- effect of addition of copper on growth pattern ([5]; Figure S3): no significant difference
- time of onset of growth inhibition ([5]; at concentrations of 40 μM and higher): between five and eight hours
- concentration giving delayed onset of growth inhibition ([5]; growth initially in all conditions): ≥ 40 µM
- change of Vmax with increasing inhibitor concentration (NDM-1 [6]): clear decrease in Vmax
- inhibition mode (NDM-1 [6]): not competitive
- effect of increasing incubation time with NDM-1 on IC50 (NDM-1 [1]; Figure S2): did not affect its IC50
- MIC [3, 10]: > 160 µM
- MG1655 MIC [3]: >160 ^* μM
- zinc removed from NDM-1 (NDM-1 [7]; 40 μM (four equivalents)): did not lead to loss of zinc
- zinc removed from NDM-1 (NDM-1 [7]; 160 μM (sixteen equivalents)): did not lead to loss of zinc
- reduction of nitrocefin turnover (NDM-1 [8]): more than 75%
- inhibition of nitrocefin turnover (NDM-1 [8]; cells exposed for only 30 minutes, compared with 60 minutes): less inhibited

SMILES: c1ccc(CN(CCN(Cc2ccccn2)Cc2ccccn2)Cc2ccccn2)nc1 [TPEN, N,N,N′,N′-tetrakis(2-pyridinylmethyl)-1,2-ethanediamine]
- IC50 (NDM-1 [1]): 0.088 µM

— paper PMC7266096 (ACS infectious diseases, 2020)
